Values of other authors, collected in US20100151018A1, “SUSTAINED-RELEASE LEVETIRACETAM COMPOSITION AND PREPARATION PROCESS” (RD- Pharmagal, priority 2007, published 2010).
Converted amounts (≈) assume the structure as drawn.

Assays:
[1] = not given; remark: listed apart in the source

| plasma half-life (in adults) [h] | bioavailability (oral administration of immediate-release tablets) | solubility in water [1] | Compound |
| --- | --- | --- | --- |
| 7 | approximately 100% | approximately 104.0 g/100 ml | CC[C@@H](C(N)=O)N1CCCC1=O [levetiracetam, S-enantiomer of a-ethyl-2-oxo-1-pyrrolidine acetamide] |
|  |  | 308 µg/mL (≈ 1220 µM) | NC(=O)N1c2ccccc2CC(=O)c2ccccc21 [oxcarbazepine] |
